Measurements reported in patent publication US20230278972A1, “SUBSTITUTED HALOALKYL SULFONANILIDE HERBICIDES” (FMC Corporation, priority 2020, published 2023).

Columns and labels:
Assay type in all cases: in vivo
[1] = system: Pigweed, Palmer (palmer amaranth, palmer pigweed, Amaranthus palmeri); experiment: Test A1 preemergence, Pigweed, Palmer
In short: (§1)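 Plants grown in pots of loam/sand mix; preemergence = soil-directed spray on seeded pots, postemergence = spray at 1–2 leaves, height 2–10 cm; test chemicals formulated in non-phytotoxic solvent with surfactant.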

rice (Oryza sativa) = experiment: Test B1 flooded paddy test, rice; details: 250 g ai/ha, Flood, applied to paddy water, 2-leaf stage, visually evaluated after 10 to 14 days
Source text: A dash (-) response means no test result.

soybean (Glycine max) [2] = experiment: Test A1 preemergence, soybean
In short: as §1

[3] = system: Ryegrass, Italian (Italian ryegrass, Lolium multiflorum); experiment: Test A1 preemergence, Ryegrass, Italian
In short: as §1

soybean (Glycine max) [4] = experiment: Test A1 postemergence, soybean; details: for Soybean plant response rating: postemergence; for Plant response rating, Soybean: Postemergence
In short: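 Plants were grown in a loam soil/sand blend, with test chemicals formulated in a non-phytotoxic solvent mixture containing surfactant. Preemergence treatment (corn) was a directed soil spray at planting. Postemergence treatment was applied to plants 2 to 10 cm tall at the one- to two-leaf stage.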

[5] = system: wheat (Triticum aestivum); experiment: Test A1 preemergence, wheat
In short: as §1

[6] = 31 g ai/ha, 0 to 100 scale (0 no effect, 100 complete control)
[7] = 125 g ai/ha, 0 to 100 scale, 0 no effect, 100 complete control
[8] = 125 g ai/ha, 0 to 100 scale (0 no effect, 100 complete control), 10 days
[9] = 125 g ai/ha, 0 to 100 scale (0 no effect, 100 complete control)

Structure (SMILES) | Plant response rating, Pigweed, Palmer [1, 6] | Plant response rating, Pigweed, Palmer [1, 7] | Plant response rating, Rice (0 to 100 scale, 0 is no effect, 100 is complete control) (rice (Oryza sativa)) | Plant response rating, Soybean (soybean (Glycine max) [2]; [6]) | Plant response rating, Soybean (soybean (Glycine max) [2]; [7]) | Plant response rating, Ryegrass, Italian [3, 6] | Plant response rating, Ryegrass, Italian [3, 7] | Soybean plant response rating (soybean (Glycine max) [4]; [6]) | Plant response rating, Soybean (soybean (Glycine max) [4]; [8]) | Plant response rating, Wheat [5, 6] | Plant response rating, Wheat [5, 7] | Plant response rating, Soybean (soybean (Glycine max) [4]; 125 g ai/ha, 0 to 100 scale) | Plant response rating, Soybean (soybean (Glycine max) [4]; 31 g ai/ha, 0 to 100 scale (0 no effect, 100 complete control), 10 days) | Plant response rating, Pigweed, Palmer [1, 9] | Plant response rating, Soybean (soybean (Glycine max) [2]; [9]) | Plant response rating, Ryegrass, Italian [3, 9] | Plant response rating, Wheat [5, 9]
Cc1cc(Cl)c(NS(=O)(=O)C(F)(F)F)cc1N1CCC2(CCCCC2)C1=O [Compound 393] | 30 | 60 | 0 | 60 | 80 | 90 | 100 | 50 | 60 | 40 | 60 |  |  |  |  |  | 
Cc1c(NS(=O)(=O)C(F)(F)F)cc(C2=NOC3(CCCC3)C2)c(C)c1C [Compound 380] | 30 | 40 | 10 | 20 | 50 | 60 | 100 | 50 | 60 | 30 | 90 |  |  |  |  |  | 
Cc1c(C2=NOC3(CCCC3)C2)cc(N(COC(=O)C(C)(C)C)S(=O)(=O)C(F)(F)F)c(C)c1C [Compound 382] | 0 | 20 | 10 | 0 | 0 | 30 | 50 | 40 | 50 | 20 | 20 |  |  |  |  |  | 
COC1CCC2(CC1)CCN(c1cc(NS(=O)(=O)C(F)(F)F)c(C)cc1C)C2=O (centres unmarked) [Compound 398] | 80 | 100 | 30 | 70 | 90 | 60 | 100 | 30 | 60 | 20 | 90 |  |  |  |  |  | 
CCOC(=O)N(c1cc(C2=NOC3CCCC23)c(CC)cc1C)S(=O)(=O)C(F)(F)F (centres unmarked) [Compound 379] |  |  | 0 | 0 | 0 | 0 | 40 | 0 |  | 0 | 30 | 20 |  |  |  |  | 
Cc1cc(C)c(N(S(=O)(=O)C(F)(F)F)S(=O)(=O)C(F)(F)F)cc1N1CCC2(CCC(C(F)(F)F)CC2)C1=O (centres unmarked) [Compound 399] | 30 | 60 | 0 | 30 | 40 | 40 | 90 | 60 | 100 | 0 | 20 |  |  |  |  |  | 
Cc1ccc(C2=NOC3CCCC23)cc1NS(=O)(=O)C(F)(F)F (centres unmarked) [Compound 377] | 0 | 0 | 0 | 0 | 0 | 0 | 40 | 0 |  | 0 | 20 | 30 |  |  |  |  | 
CCOC(=O)N(c1cc(C(=O)N2CCSCC2)c(C)c(C)c1C)S(=O)(=O)C(F)(F)F [Compound 286] | 50 | 70 | 0 | 0 | 40 | 0 | 0 |  |  | 0 | 30 | 60 | 50 |  |  |  | 
Cc1c(C(=O)N2C[C@@H](C)O[C@H](C)C2)cc(N(COC(=O)C(C)(C)C)S(=O)(=O)C(F)(F)F)c(C)c1C (relative stereo) [Compound 373] | 20 | 40 | 20 | 0 | 10 | 0 | 0 | 50 |  | 0 | 20 | 70 |  |  |  |  | 
Cc1cc(C)c(N2Cc3cccc(Br)c3C2=O)cc1NS(=O)(=O)Cl [Compound 415] |  |  | 10 |  |  |  |  | 10 | 30 |  |  |  |  | 60 | 0 | 70 | 50
